Source: US20250177529A1, “ACOUSTIC ENRICHMENT OF ADOPTIVE CELL TRANSFERS” (THE REGENTS OF THE UNIVERSITY OF COLORADO, A BODY CORPORATE, priority 2022, published 2025)

Assays:
[1] = in vivo; cited from earlier work
[2] = system: primary macrophages; assay: Primary macrophage polarization by IFNγ-containing particles; type: cell-based; conditions: compared to controls
Description: FIG. 7 presents exemplary data showing primary macrophage polarization in various conditions.
FIG. 7A: Normoxia (i.e., standard cell culture conditions) without interferon gamma (IFNγ).
FIG. 7B: Normoxia with IFNγ.
FIG. 7C: Tumor-promoting conditions (i.e., in hypoxia (1% 02) and 10 vol. % tumor (4T1)-conditioned media) and bound to IFNγ-containing particles after 24 hrs.
As discussed above, discoidal elastomeric particles can encapsulate inflammatory cytokines (i.e., IFNγ) and polarize the cells to which they are bound. […] Macrophages maintained their polarization for 5 days, even when challenged by hypoxia (1% O2) and tumor-conditioned media (i.e., 10 vol. % tumor (4T1)-conditioned media).

For CC(C)(CNC(=O)c1cccc(-c2noc(C(F)(F)F)n2)c1)c1coc(-c2ccccc2)n1 [TMP195], the “maximum tolerated dose (MTD)” value [1] is given as 50 mg/kg.

For CCOCc1nc2c(N)nc3ccccc3c2n1CC(C)(C)O [resiquimod], the “maximum tolerated dose (MTD)” value [1] is listed as 5 mg/kg.

B1: IFNγ: inflammatory cytokine, equivalent free dose (protein, UniProt P01580 23-155, looked up)
Interferon gamma: HGTVIESLESLNNYFNSSGIDVEEKSLFLDIWRNWQKDGDMKILQSQIISFYLRLFEVLKDNQAISNNISVIESHLITTFFSNSKAKKDAFMSIAKFEVNNPQVQRQAFNELIRVVHQLLPESSLRKRKRSRC
In the case of B1, the “iNOS expression, fold higher” value [2] is reported as 1.3 fold.
